Measured values as given in ChEMBL document CHEMBL1681651, “A broad spectrum anticancer nucleoside with selective toxicity against human colon cells in vitro” (2011).

Tests used:
Format in all cases: functional
[1] = tested on: SNB-75; assay: Growth inhibition of human SNB75 cells assessed as cell growth at 1 uM after 48 hrs by SRB assay; conditions: SNB-75, 48 h, read-out: Activity
[2] = tested on: OVCAR-4; assay: Growth inhibition of human OVCAR4 cells after 48 hrs by […] growth inhibition assay; conditions: OVCAR-4, 48 h
[3] = tested on: NCI-H522; assay: Growth inhibition of human NCI-H522 cells assessed as cell growth at 10 uM after 48 hrs by SRB assay; conditions: NCI-H522, 48 h, read-out: Activity
[4] = tested on: K562; assay: Growth inhibition of human K562 cells assessed as cell growth at 10 uM after 48 hrs by SRB assay; conditions: K562, 48 h, read-out: Activity
[5] = tested on: CCRF-CEM; assay: Growth inhibition of human CCRF-CEM cells assessed as cell growth at 1 mM after 48 hrs by SRB assay; conditions: read-out: Activity
[6] = tested on: DU-145; assay: Growth inhibition of human DU145 cells assessed as cell growth at 100 uM after 48 hrs by SRB assay; conditions: DU-145, 48 h, read-out: Activity
[7] = tested on: T47D; assay: Growth inhibition of human T47D cells assessed as cell growth at 1 uM after 48 hrs by SRB assay; conditions: read-out: Activity
[8] = tested on: OVCAR-3; assay: Growth inhibition of human OVCAR3 cells assessed as cell growth at 1 uM after 48 hrs by SRB assay; conditions: OVCAR-3, 48 h, read-out: Activity
[9] = tested on: SN12C; assay: Growth inhibition of human SN12C cells assessed as cell growth at 1 uM after 48 hrs by SRB assay; conditions: read-out: Activity
[10] = tested on: HCT-116; assay: Growth inhibition of human HCT116 cells assessed as cell growth at 1 mM after 48 hrs by SRB assay; conditions: HCT-116, 48 h, read-out: Activity
[11] = tested on: UACC-62; assay: Growth inhibition of human UACC62 cells assessed as cell growth at 1 mM after 48 hrs by SRB assay; conditions: UACC-62, 48 h, read-out: Activity
[12] = tested on: 786-0; assay: Growth inhibition of human 786-0 cells assessed as cell growth at 10 uM after 48 hrs by SRB assay; conditions: 786-0, 48 h, read-out: Activity
[13] = tested on: TK-10; assay: Growth inhibition of human TK10 cells assessed as cell growth at 100 uM after 48 hrs by SRB assay; conditions: TK-10, 48 h, read-out: Activity
[14] = tested on: UO-31; assay: Growth inhibition of human UO31 cells assessed as cell growth at 1 mM after 48 hrs by SRB assay; conditions: UO-31, 48 h, read-out: Activity
[15] = tested on: NCI-H322M; assay: Growth inhibition of human NCI-H322M cells assessed as cell growth at 1 mM after 48 hrs by SRB assay; conditions: read-out: Activity
[16] = tested on: MDA-MB-435; assay: Growth inhibition of human MDA-MB-435 cells assessed as cell growth at 1 uM after 48 hrs by SRB assay; conditions: MDA-MB-435, 48 h, read-out: Activity
[17] = tested on: SNB-75; assay: Growth inhibition of human SNB75 cells assessed as cell growth at 1 mM after 48 hrs by SRB assay; conditions: SNB-75, 48 h, read-out: Activity
[18] = tested on: M14; assay: Growth inhibition of human M14 cells assessed as cell growth at 100 uM after 48 hrs by SRB assay; conditions: M14, 48 h, read-out: Activity
[19] = tested on: SK-MEL-28; assay: Growth inhibition of human SK-MEL-28 cells assessed as cell growth at 10 uM after 48 hrs by SRB assay; conditions: SK-MEL-28, 48 h, read-out: Activity
[20] = tested on: SF-268; assay: Growth inhibition of human SF268 cells after 48 hrs by […] growth inhibition assay; conditions: SF-268, 48 h
[21] = tested on: NCI-H23; assay: Growth inhibition of human NCI-H23 cells assessed as cell growth at 0.1 uM after 48 hrs by SRB assay; conditions: NCI-H23, 48 h, read-out: Activity
[22] = tested on: NCI-H226; assay: Growth inhibition of human NCI-H226 cells assessed as cell growth at 1 mM after 48 hrs by SRB assay; conditions: NCI-H226, 48 h, read-out: Activity
[23] = tested on: A498; assay: Growth inhibition of human A498 cells assessed as cell growth at 0.1 uM after 48 hrs by SRB assay; conditions: A498, 48 h, read-out: Activity
[24] = tested on: TK-10; assay: Growth inhibition of human TK10 cells after 48 hrs by […] growth inhibition assay; conditions: TK-10, 48 h
[25] = tested on: SF-295; assay: Growth inhibition of human SF295 cells assessed as cell growth at 1 mM after 48 hrs by SRB assay; conditions: SF-295, 48 h, read-out: Activity
[26] = tested on: NCI/ADR-RES; assay: Growth inhibition of human NCI/ADR-RES cells assessed as cell growth at 100 uM after 48 hrs by SRB assay; conditions: read-out: Activity
[27] = tested on: IGROV-1; assay: Growth inhibition of human IGROV1 cells assessed as cell growth at 100 uM after 48 hrs by SRB assay; conditions: IGROV-1, 48 h, read-out: Activity
[28] = tested on: HCT-15; assay: Growth inhibition of human HCT15 cells assessed as cell growth at 0.1 uM after 48 hrs by SRB assay; conditions: HCT-15, 48 h, read-out: Activity
[29] = tested on: SNB-19; assay: Growth inhibition of human SNB19 cells assessed as cell growth at 1 mM after 48 hrs by SRB assay; conditions: SNB-19, 48 h, read-out: Activity
[30] = tested on: RXF 393; assay: Growth inhibition of human RXF393 cells assessed as cell growth at 1 uM after 48 hrs by SRB assay; conditions: RXF 393, 48 h, read-out: Activity
[31] = Growth inhibition of human […] cells after 48 hrs by […] growth inhibition assay
[32] = tested on: CAKI-1; assay: Growth inhibition of human Caki1 cells assessed as cell growth at 100 uM after 48 hrs by SRB assay; conditions: CAKI-1, 48 h, read-out: Activity
[33] = tested on: 786-0; assay: Growth inhibition of human 786-0 cells assessed as cell growth at 0.1 uM after 48 hrs by SRB assay; conditions: 786-0, 48 h, read-out: Activity
[34] = tested on: TK-10; assay: Growth inhibition of human TK10 cells assessed as cell growth at 1 uM after 48 hrs by SRB assay; conditions: TK-10, 48 h, read-out: Activity
[35] = tested on: PC-3; assay: Growth inhibition of human PC3 cells assessed as cell growth at 10 uM after 48 hrs by SRB assay; conditions: PC-3, 48 h, read-out: Activity
[36] = read-out: LC50 (the source's name)
[37] = read-out: pLC50 (the source's name) (converted)

For CNC(=O)NC[C@H]1O[C@@H](n2cnc3c(NC(=O)Nc4ccccc4)ncnc32)[C@H](O[Si](C)(C)C(C)(C)C)[C@@H]1CC(=O)N(C)OC, which growth at 1 µM [1] is on record?
Its growth at 1 µM is 95%.

And the GI50 ([2]; read-out: GI50)?
The GI50 was 53 µM.

What about the CC50 [2, 36] of the same compound?
Its CC50 is over 100 µM.

And the TGI ([2]; read-out: TGI)?
Its TGI is over 100 µM.

What about the GI50 ([2]; read-out: pGI50 (converted)) of the same compound?
The GI50 was 52.5 µM.

And the CC50 [2, 37]?
Its CC50 is over 100 µM.

What about the TGI ([2]; read-out: pTGI) of the same compound?
Its TGI is over 100 µM.

What about the growth at 10 µM [3] of the same compound?
Its growth at 10 µM is 84%.

And the growth at 10 µM [4]?
Its growth at 10 µM is 82%.

What about the growth at 1000 µM [5] of the same compound?
Its growth at 1000 µM is 23%.

And the growth at 100 µM [6]?
Its growth at 100 µM is 60%.

And the growth at 1 µM [7]?
The growth at 1 µM was 89%.

What about the growth at 1 µM [8] of the same compound?
Its growth at 1 µM is 107%.

What about the growth at 1 µM [9] of the same compound?
The growth at 1 µM was 104%.

What about the growth at 1000 µM [10] of the same compound?
Its growth at 1000 µM is 6%.

What about the growth at 1000 µM [11] of the same compound?
Its growth at 1000 µM is 39%.

What about the growth at 10 µM [12] of the same compound?
Its growth at 10 µM is 93%.

And the growth at 100 µM [13]?
The growth at 100 µM was 65%.

And the growth at 1000 µM [14]?
The growth at 1000 µM was 32%.

And the growth at 1000 µM [15]?
Its growth at 1000 µM is 73%.

What about the growth at 1 µM [16] of the same compound?
The growth at 1 µM was 97%.

What about the growth at 1000 µM [17] of the same compound?
Its growth at 1000 µM is 12%.

And the growth at 100 µM [18]?
Its growth at 100 µM is 57%.

What about the growth at 10 µM [19] of the same compound?
Its growth at 10 µM is 101%.

What about the GI50 ([20]; read-out: GI50) of the same compound?
The GI50 was 8.29 µM.

What about the CC50 [20, 36] of the same compound?
Its CC50 is over 100 µM.

What about the TGI ([20]; read-out: TGI) of the same compound?
The TGI was over 100 µM.

And the GI50 ([20]; read-out: pGI50 (converted))?
The GI50 was 8.32 µM.

What about the CC50 [20, 37] of the same compound?
The CC50 was over 100 µM.

And the TGI ([20]; read-out: pTGI (converted))?
The TGI was over 100 µM.

What about the growth at 0.1 µM [21] of the same compound?
The growth at 0.1 µM was 106%.

And the growth at 1000 µM [22]?
The growth at 1000 µM was 40%.

What about the growth at 0.1 µM [23] of the same compound?
Its growth at 0.1 µM is 90%.

And the GI50 ([24]; read-out: GI50)?
Its GI50 is 20.6 µM.

And the CC50 [24, 36]?
The CC50 was over 100 µM.

And the TGI ([24]; read-out: TGI)?
Its TGI is over 100 µM.

And the GI50 ([24]; read-out: pGI50 (converted))?
The GI50 was 20.4 µM.

And the CC50 [24, 37]?
The CC50 was over 100 µM.

What about the TGI ([24]; read-out: pTGI (converted)) of the same compound?
Its TGI is over 100 µM.

And the growth at 1000 µM [25]?
Its growth at 1000 µM is 20%.

What about the growth at 100 µM [26] of the same compound?
The growth at 100 µM was 76%.

What about the growth at 100 µM [27] of the same compound?
Its growth at 100 µM is 26%.

What about the growth at 0.1 µM [28] of the same compound?
The growth at 0.1 µM was 96%.

And the growth at 1000 µM [29]?
Its growth at 1000 µM is 51%.

And the growth at 1 µM [30]?
The growth at 1 µM was 100%.

What about the GI50 ([31]; read-out: GI50) of the same compound?
Its GI50 is 1.58 µM.

And the CC50 [31, 36]?
Its CC50 is over 100 µM.

And the TGI ([31]; read-out: TGI)?
Its TGI is 5.4 µM.

What about the GI50 ([31]; read-out: pGI50 (converted)) of the same compound?
The GI50 was 1.58 µM.

What about the CC50 [31, 37] of the same compound?
Its CC50 is over 100 µM.

And the TGI ([31]; read-out: pTGI (converted))?
Its TGI is 5.37 µM.

What about the growth at 100 µM [32] of the same compound?
Its growth at 100 µM is 57%.

And the growth at 0.1 µM [33]?
The growth at 0.1 µM was 95%.

What about the growth at 1 µM [34] of the same compound?
The growth at 1 µM was 106%.

With CNC(=O)OC[C@H]1O[C@@H](n2cnc3c(NC(=O)Nc4ccccc4)ncnc32)[C@H](O[Si](C)(C)C(C)(C)C)[C@@H]1O[Si](C)(C)C(C)(C)C as the compound, how does the growth at 10 µM [3] read?
Its growth at 10 µM is 52.6%.

And the growth at 10 µM [4]?
Its growth at 10 µM is 75.4%.

What about the growth at 10 µM [35] of the same compound?
The growth at 10 µM was 58.9%.

What about the growth at 10 µM [12] of the same compound?
Its growth at 10 µM is 94.6%.

And the growth at 10 µM [19]?
The growth at 10 µM was 102%.
